In paper PMC3728144, “Synthesis, reactions and biological activity of some new bis-heterocyclic ring compounds containing sulphur atom” (Chemistry Central Journal, 2013):
Like-named read-outs stand apart in the source and are kept apart here.

Columns and labels:
β-Glucuronidase = molecular target: T1, β-Glucuronidase (Escherichia coli, UniProt P05804); assay: In vitro β-glucuronidase inhibition assay; type: biochemical; settings: p-nitrophenyl-β-D-glucuronide substrate, 37°C, 405 nm; NA = not active, failed to show 50% or more inhibition at 500 μM or more; read-out: ß-Glucuronidase inhibition IC50 ± SEM
T1 construct: purchased Sigma Aldrich G7396-25KU
T1 sequence (P05804 whole entry): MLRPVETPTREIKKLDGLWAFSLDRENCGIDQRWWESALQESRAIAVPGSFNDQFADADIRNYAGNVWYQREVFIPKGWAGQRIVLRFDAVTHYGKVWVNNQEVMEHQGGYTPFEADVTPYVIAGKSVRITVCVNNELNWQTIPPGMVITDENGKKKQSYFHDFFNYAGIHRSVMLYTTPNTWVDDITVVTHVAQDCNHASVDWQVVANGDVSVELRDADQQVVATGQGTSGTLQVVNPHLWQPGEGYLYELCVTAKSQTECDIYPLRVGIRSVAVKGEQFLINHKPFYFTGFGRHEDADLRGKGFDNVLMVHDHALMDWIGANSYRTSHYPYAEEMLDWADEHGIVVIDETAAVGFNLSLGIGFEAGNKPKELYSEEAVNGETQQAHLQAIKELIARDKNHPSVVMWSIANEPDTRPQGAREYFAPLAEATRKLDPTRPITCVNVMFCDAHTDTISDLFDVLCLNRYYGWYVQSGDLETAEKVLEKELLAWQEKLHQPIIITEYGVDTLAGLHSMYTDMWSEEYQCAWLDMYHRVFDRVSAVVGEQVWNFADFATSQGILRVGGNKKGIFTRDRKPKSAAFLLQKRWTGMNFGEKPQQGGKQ
Method: (§1) Various In vitro assays were performed to the assessment of biological activity of newly synthesized compounds. Results were presented here as means ± standard error from triplicate (n = 3) observation. IC50 values were calculated by using EZ-FIT, Enzyme kinetics software by Perrella Scientific.
β-Glucuronidase inhibitory activity was determined by the spectrophotometric method by measuring the absorbance at 405 nm of p-nitrophenol formed from the substrate (p-nitrophenyl-β-D-glucuronide N1627-250 mg (Sigma Aldrich). The total reaction volume was 250 μL. The compound (5 μL) was dissolved in DMSO (100%), which becomes 2% in the ultimate assay (250 μL) and the similar conditions were used for standard (D-saccharic acid 1, 4-lactone, Sigma Aldrich). The reaction mixture contained 185 μL of 0.1 M acetate buffer, 5 μL of test compound solution, 10 μL of (1U) enzyme solution (G7396-25KU, Sigma Aldrich) was incubated at 37°C for 30 min. The plates were read on a multiplate reader (SpectraMax plus 384) at 405 nm after the addition of 50 μL of 0.4 mM p-nitrophenyl-β-D-glucuronide. All assays were performed in triplicate. IC50 Values were calculated by using EZ-Fit software (Perrella Scientific Inc., Amherst, MA, U.S.A.). These values are the mean of three independent readings.

[1] = tested on: PC3 cells (Prostrate Cancer); assay: Anticancer (cytotoxic) activity, MTT colorimetric assay; type: cell-based; settings: compounds 1-30 μM, n = 3, read-out: Anticancer activity (PC-3 cell line) IC50 ± SEM
Method: as §1
Cytotoxic activity of compounds was evaluated in 96-well flat-bottomed microplates by using the standard MTT (3-[4, 5-dimethylthiazole-2-yl]-2, 5-diphenyl-tetrazolium bromide, MP) colorimetric assay. For this purpose, PC3 cells (Prostrate Cancer) were cultured in Dulbecco’s Modified Eagle Medium, supplemented with 10% of fetal bovine serum (FBS, PAA), 100 IU/mL of penicillin and 100 μ g/mL of streptomycin in 75 cm^2 flasks, and kept in 5% CO2 incubator at 37°C. Exponentially growing cells were harvested, counted with haemocytometer and diluted with a particular medium with 5% FBS. Cell culture with the concentration of 1x10^5 cells/mL was prepared and introduced (100 μL/well) into 96-well plates. After overnight incubation, medium was removed and 200 μL of fresh medium was added with different concentrations of compounds (1-30 μM). Stock solution, 20 mM of compounds were prepared in 100% DMSO and final concentration of DMSO at 30 μM is 0.15% .After 48 hrs, 200 μL MTT (0.5 mg/mL) was added to each well and incubated further for 4 hrs. Subsequently, 100 μL of DMSO was added to each well. The extent of MTT reduction to formazan within cells was calculated by measuring the absorbance at 570 nm, using a micro plate reader (Spectra Max plus, Molecular Devices, CA, USA). The cytotoxicity was recorded as concentration causing 50% growth inhibition (IC50) for PC3 cells. The percent inhibition was calculated by using the following formula:
% inhibition = 100-((mean of O.D of test compound – mean of O.D of negative control)/ (mean of O.D of positive control – mean of O.D of negative control)*100).
The results (% inhibition) were processed by using Soft- Max Pro software (Molecular Device, USA).

[2] = DPPH radical scavenging antioxidant assay; settings: DPPH 300 μM, half an hour at 37°C, 515 nm, NA = not active, failed to show 50% or more inhibition at 500 μM or more, read-out: DPPH radical scavenging assay IC50 ± SEM
Method: as §1
Test samples were allowed to react with stable free radical, 1, 1-diphenyl-2-picrylhydrazyl radical (DPPH, Wako Chemicals USA, Inc.)) for half an hour at 37°C. Various concentrations of test samples (prepared in DMSO) were incubated with DPPH (300 μM; prepared in ethanol). After incubation, decrease in absorption was measured at 515 nm using a microplate reader (SpectraMax plus 384). Percentage radical scavenging activity (% RSA) by samples was determined, in comparison with a DMSO- treated control group.% Radical scavenging activity was calculated by using the formula given in statistical analysis section.

## Cc1c(-c2cn3c(nc4ccccc43)[nH]2)sc2sc(-c3cn4c(nc5ccccc54)[nH]3)c(-c3ccccc3)c12 [Compound 6, 5,5'-(3-Methyl-4-phenylthieno[2,3-b]thiophene-2,5-diyl)bis(1H-imidazo[1,2a]benzimidazole)]
other
  melting point: > 320 °C

## O=C(O)[C@@H](O)[C@H]1OC(=O)[C@H](O)[C@H]1O [D-Saccharic acid 1,4-lactone, reference compound]
β-Glucuronidase
  IC50: 45.8 µM

## Cc1c(-c2c[nH]c(N)n2)sc2sc(-c3c[nH]c(N)n3)c(-c3ccccc3)c12 [Compound 8c, 4,4'-(3-Methyl-4-phenylthieno[2,3-b]thiophene-2,5-diyl)bis(1H-imidazol-2-amine)]
other
  melting point: > 320 °C

## Cc1c(-c2cn3[nH]cnc3n2)sc2sc(-c3cn4[nH]cnc4n3)c(-c3ccccc3)c12 [Compound 7, 5,5'-(3-Methyl-4-phenylthieno[2,3-b]thiophene-2,5-diyl)bis(1H-imidazo[1,2-b] [1,2, 4]triazole)]
other
  melting point: > 320 °C

## Cc1c(-c2coc(N)n2)sc2sc(-c3coc(N)n3)c(-c3ccccc3)c12 [Compound 8a, 4,4'-(3-Methyl-4-phenylthieno[2,3-b]thiophene-2,5-diyl)dioxazol-2-amine]
other
  melting point: > 320 °C
[1]; Homo sapiens, PC-3, 48 h
  IC50: > 30 µM
β-Glucuronidase
  IC50: 1.2 ± 0.0785 µM

## Cc1c(-c2csc(CC#N)n2)sc2sc(-c3csc(CC#N)n3)c(-c3ccccc3)c12 [Compound 3, 2,2'-(4,4'-(3-Methyl-4-phenylthieno[2,3-b]thiophene-2,5-diyl)bis(thiazole-4,2-diyl)) diacetonitrile]
other
  melting point: > 320 °C
[1]; Homo sapiens, PC-3, 48 h
  IC50: > 30 µM

## Cc1c(C(=O)CNc2ccccc2)sc2sc(C(=O)CNc3ccccc3)c(-c3ccccc3)c12 [Compound 9a, 1,1'-(3-Methyl-4-phenylthieno[2,3-b]thiophene-2,5-diyl)bis(2-(phenylamino)ethanone)]
other
  melting point: > 320 °C
[1]; Homo sapiens, PC-3, 48 h
  IC50: > 30 µM

## Cc1c(-c2csc(N)n2)sc2sc(-c3csc(N)n3)c(-c3ccccc3)c12 [Compound 8b, 4,4'-(3-Methyl-4-phenylthieno[2,3-b]thiophene-2,5-diyl)dithiazol-2-amine]
other
  melting point: 260 to 261 °C
[1]; Homo sapiens, PC-3, 48 h
  IC50: 24.2 ± 0.29 µM

## Cc1c(C(=O)CNc2ccc(Cl)cc2)sc2sc(C(=O)CNc3ccc(Cl)cc3)c(-c3ccccc3)c12 [Compound 9b, 1,1'-(3-Methyl-4-phenylthieno[2,3-b]thiophene-2,5-diyl)bis(2-(4-chlorophenylamino)ethanone)]
other
  melting point: > 320 °C
[1]; Homo sapiens, PC-3, 48 h
  IC50: > 30 µM

## Cc1c(-c2csc(C(C#N)=Cc3ccc(Cl)cc3)n2)sc2sc(-c3csc(C(C#N)=Cc4ccc(Cl)cc4)n3)c(-c3ccccc3)c12 [Compound 4b, 3-(4-Chlorophenyl)-2-(4-(5-(2-(2-(4-chlorophenyl)-1-cyanovinyl)thiazol-4-yl)-3-methyl-4-phenylthieno[2,3-b]thiophen-2-yl)thiazol-2-yl)acrylonitrile]
other
  melting point: 167 to 168 °C
[1]; Homo sapiens, PC-3, 48 h
  IC50: > 30 µM

## Cc1c(C2=C(C#N)C=NC2)sc2sc(C3=C(C#N)C=NC3)c(-c3ccccc3)c12 [Compound 5, 3-(5-(4-Cyano-2H-pyrrol-3-yl)-3-methyl-4-phenylthieno[2,3-b]thiophen-2-yl)-2H-pyrrole-4-carbonitrile]
other
  melting point: > 320 °C
[1]; Homo sapiens, PC-3, 48 h
  IC50: > 30 µM
β-Glucuronidase
  IC50: 0.13 ± 0.019 µM

## COc1cccc2c1C(=O)c1c(O)c3c(c(O)c1C2=O)C[C@@](O)(C(=O)CO)C[C@@H]3O[C@H]1C[C@H](N)[C@H](O)[C@H](C)O1 [Doxorubicin, reference compound]
[1]; 48 hrs
  IC50: 0.91 µM
[1]; Homo sapiens, PC-3, 48 h
  IC50: 0.912 ± 0.12 µM

## COc1ccc(C=C(C#N)c2nc(-c3sc4sc(-c5csc(C(C#N)=Cc6ccc(OC)cc6)n5)c(-c5ccccc5)c4c3C)cs2)cc1 [Compound 4c, 2-(4-(5-(2-(1-Cyano-2-(4-methoxyphenyl)vinyl)thiazol-4-yl)-3-methyl-4-phenylthieno[2,3-b]thiophen-2-yl)thiazol-2-yl)-3-(4-methoxyphenyl)acrylonitrile]
other
  melting point: 238 to 239 °C

## Cc1c(-c2csc(C(C#N)=Cc3ccccc3)n2)sc2sc(-c3csc(C(C#N)=Cc4ccccc4)n3)c(-c3ccccc3)c12 [Compound 4a, 2-(4-(5-(2-(1-Cyano-2-phenylvinyl)thiazol-4-yl)-3-methyl-4-phenylthieno[2,3-b]thiophen-2-yl)thiazol-2-yl)-3-phenylacrylonitrile]
other
  melting point: 220 to 221 °C
[1]; Homo sapiens, PC-3, 48 h
  IC50: > 30 µM

## CC(=O)N[C@@H](CS)C(=O)O [N-Acetylcysteine]
[2]; listed as N-acetylcystein
  IC50: 106 ± 1.1 µM
[2]
  IC50: 106 µM
